{"source": "patent US12185723B2", "about": "“Herbicidally active 3-phenylisoxazoline-5-carboxamides of s-containing cyclopentenylcarboxylic esters” (Bayer Aktiengesellschaft, priority 2019, dated 2025)", "type_in_all_cases": "in vivo", "key": {"Stellaria media": {"tested_on": "Stellaria media", "assay": "Post-emergence herbicidal action against STEME", "details": "80 g a.i./ha", "experimental": "(§1) Post-Emergence Herbicidal Action Against Harmful Plants and Crop Plant Compatibility Seeds of monocotyledonous and dicotyledonous weeds and crop plants are placed in sandy loam in plastic or wood-fibre pots, covered with soil and cultivated in a greenhouse under controlled growth conditions. 2 to 3 weeks after sowing, the test plants are treated at the one-leaf stage. The compounds of the invention, formulated in the form of wettable powders (WP) or as emulsion concentrates (EC), are then sprayed onto the green parts of the plants as aqueous suspension or emulsion with addition of 0.5% additive at a water application rate of 600 l/ha (converted). After the test plants have been kept in the greenhouse under optimum growth conditions for about 3 weeks, the activity of the preparations is rated visually in comparison to untreated controls. For example, 100% activity=the plants have died, 0% activity=like control plants. [table]"}, "Lolium rigidum": {"tested_on": "Lolium rigidum", "assay": "Post-emergence herbicidal action against LOLRI", "details": "visual rating about 3 weeks after treatment", "experimental": "as §1"}, "Setaria viridis": {"tested_on": "Setaria viridis", "assay": "Post-emergence herbicidal action against SETVI", "details": "visual rating about 3 weeks after treatment", "experimental": "as §1"}, "Avena fatua": {"tested_on": "Avena fatua", "assay": "Post-emergence herbicidal action against AVEFA", "details": "visual rating about 3 weeks after treatment", "experimental": "as §1"}, "Veronica persica": {"tested_on": "Veronica persica", "assay": "Post-emergence herbicidal action against VERPE", "experimental": "as §1"}, "DIGSA": {"tested_on": "DIGSA", "assay": "Post-emergence herbicidal action against DIGSA", "details": "visual rating about 3 weeks after treatment", "experimental": "as §1, with “plants.” for “plants. [table]”"}, "Alopecurus myosuroides": {"tested_on": "Alopecurus myosuroides", "assay": "Post-emergence herbicidal action against ALOMY", "details": "20 g a.i./ha, visual rating about 3 weeks after treatment", "experimental": "as §1"}, "Hordeum murinum": {"tested_on": "Hordeum murinum", "assay": "Post-emergence herbicidal action against HORMU", "experimental": "as §1"}, "Abutilon theophrasti": {"tested_on": "Abutilon theophrasti", "assay": "Post-emergence herbicidal action against ABUTH", "details": "20 g a.i./ha, visual rating about 3 weeks after treatment", "experimental": "as §1"}, "Echinochloa crus-galli": {"tested_on": "Echinochloa crus-galli", "assay": "Post-emergence herbicidal action against ECHCG", "details": "20 g a.i./ha, visual rating about 3 weeks after treatment", "experimental": "as §1"}, "Pharbitis purpurea": {"tested_on": "Pharbitis purpurea", "assay": "Post-emergence herbicidal action against PHBPU", "details": "20 g a.i./ha", "experimental": "as §1"}, "Polygonum convolvulus": {"tested_on": "Polygonum convolvulus", "assay": "Post-emergence herbicidal action against POLCO", "details": "20 g a.i./ha", "experimental": "as §1"}, "Amaranthus retroflexus": {"tested_on": "Amaranthus retroflexus", "assay": "Post-emergence herbicidal action against AMARE", "details": "20 g a.i./ha", "experimental": "as §1"}}}
{"smiles": "CSCCOC(=O)C1C=CC(NC(=O)C2(C)CC(c3cccc(C#N)c3)=NO2)C1", "note": "(stereo not shown) [Example I-41]", "values": [{"measurement": "Herbicidal action against [%] STEME", "setting": "Stellaria media", "result": 80, "unit": "%"}, {"measurement": "Herbicidal action against [%] LOLRI", "setting": "Lolium rigidum; 80 g a.i./ha", "result": 80, "unit": "%"}, {"measurement": "Herbicidal action against [%] SETVI", "setting": "Setaria viridis; 20 g a.i./ha", "result": 80, "unit": "%"}, {"measurement": "Herbicidal action against [%] SETVI", "setting": "Setaria viridis; 80 g a.i./ha", "result": 80, "unit": "%"}, {"measurement": "Herbicidal action against [%] AVEFA", "setting": "Avena fatua; 20 g a.i./ha", "result": 90, "unit": "%"}, {"measurement": "Herbicidal action against [%] AVEFA", "setting": "Avena fatua; 80 g a.i./ha", "result": 100, "unit": "%"}, {"measurement": "Herbicidal action against [%] VERPE", "setting": "Veronica persica; 80 g a.i./ha", "result": 80, "unit": "%"}, {"measurement": "Herbicidal action against [%] DIGSA", "setting": "DIGSA; 80 g a.i./ha", "result": 80, "unit": "%"}, {"measurement": "Herbicidal action against [%] ALOMY", "setting": "Alopecurus myosuroides", "result": 80, "unit": "%"}, {"measurement": "Herbicidal action against [%] HORMU", "setting": "Hordeum murinum; 20 g a.i./ha", "result": 80, "unit": "%"}, {"measurement": "Herbicidal action against [%] HORMU", "setting": "Hordeum murinum; 80 g a.i./ha", "result": 90, "unit": "%"}]}
{"smiles": "C=CC1(C(=O)NC2C=CC(C(=O)OCCSC)C2)CC(c2cc(F)cc(C#N)c2)=NO1", "note": "(stereo not shown) [Example I-39]", "values": [{"measurement": "Herbicidal action against [%] ABUTH", "setting": "Abutilon theophrasti", "result": 80, "unit": "%"}, {"measurement": "Herbicidal action against [%] ECHCG", "setting": "Echinochloa crus-galli", "result": 90, "unit": "%"}, {"measurement": "Herbicidal action against [%] PHBPU", "setting": "Pharbitis purpurea", "result": 80, "unit": "%"}, {"measurement": "Herbicidal action against [%] POLCO", "setting": "Polygonum convolvulus", "result": 80, "unit": "%"}, {"measurement": "Herbicidal action against [%] LOLRI", "setting": "Lolium rigidum; 20 g a.i./ha", "result": 90, "unit": "%"}, {"measurement": "Herbicidal action against [%] AMARE", "setting": "Amaranthus retroflexus", "result": 80, "unit": "%"}, {"measurement": "Herbicidal action against [%] SETVI", "setting": "Setaria viridis; 20 g a.i./ha", "result": 90, "unit": "%"}, {"measurement": "Herbicidal action against [%] AVEFA", "setting": "Avena fatua; 20 g a.i./ha", "result": 90, "unit": "%"}, {"measurement": "Herbicidal action against [%] VERPE", "setting": "Veronica persica; 20 g a.i./ha", "result": 90, "unit": "%"}, {"measurement": "Herbicidal action against [%] DIGSA", "setting": "DIGSA; 20 g a.i./ha", "result": 90, "unit": "%"}, {"measurement": "Herbicidal action against [%] ALOMY", "setting": "Alopecurus myosuroides", "result": 90, "unit": "%"}]}
{"smiles": "CC1(C(=O)NC2C=CC(C(=O)OCCSCc3ccc(F)cc3)C2)CC(c2cc(F)cc(F)c2)=NO1", "note": "(stereo not shown) [Example I-09]", "values": [{"measurement": "Herbicidal action against [%] ABUTH", "setting": "Abutilon theophrasti", "result": 80, "unit": "%"}, {"measurement": "Herbicidal action against [%] ECHCG", "setting": "Echinochloa crus-galli", "result": 90, "unit": "%"}, {"measurement": "Herbicidal action against [%] PHBPU", "setting": "Pharbitis purpurea", "result": 80, "unit": "%"}, {"measurement": "Herbicidal action against [%] POLCO", "setting": "Polygonum convolvulus", "result": 80, "unit": "%"}, {"measurement": "Herbicidal action against [%] LOLRI", "setting": "Lolium rigidum; 20 g a.i./ha", "result": 90, "unit": "%"}, {"measurement": "Herbicidal action against [%] AMARE", "setting": "Amaranthus retroflexus", "result": 90, "unit": "%"}, {"measurement": "Herbicidal action against [%] SETVI", "setting": "Setaria viridis; 20 g a.i./ha", "result": 90, "unit": "%"}, {"measurement": "Herbicidal action against [%] AVEFA", "setting": "Avena fatua; 20 g a.i./ha", "result": 90, "unit": "%"}, {"measurement": "Herbicidal action against [%] VERPE", "setting": "Veronica persica; 20 g a.i./ha", "result": 90, "unit": "%"}, {"measurement": "Herbicidal action against [%] DIGSA", "setting": "DIGSA; 20 g a.i./ha", "result": 90, "unit": "%"}, {"measurement": "Herbicidal action against [%] ALOMY", "setting": "Alopecurus myosuroides", "result": 90, "unit": "%"}]}
{"smiles": "CN(C)C(=O)SCCOC(=O)C1C=CC(NC(=O)C2(C)CC(c3cc(F)cc(F)c3)=NO2)C1", "note": "(stereo not shown) [Example I-04]", "values": [{"measurement": "Herbicidal action against [%] ABUTH", "setting": "Abutilon theophrasti", "result": 80, "unit": "%"}, {"measurement": "Herbicidal action against [%] ECHCG", "setting": "Echinochloa crus-galli", "result": 80, "unit": "%"}, {"measurement": "Herbicidal action against [%] PHBPU", "setting": "Pharbitis purpurea", "result": 80, "unit": "%"}, {"measurement": "Herbicidal action against [%] SETVI", "setting": "Setaria viridis; 20 g a.i./ha", "result": 80, "unit": "%"}, {"measurement": "Herbicidal action against [%] AVEFA", "setting": "Avena fatua; 20 g a.i./ha", "result": 80, "unit": "%"}, {"measurement": "Herbicidal action against [%] VERPE", "setting": "Veronica persica; 20 g a.i./ha", "result": 80, "unit": "%"}, {"measurement": "Herbicidal action against [%] DIGSA", "setting": "DIGSA; 20 g a.i./ha", "result": 80, "unit": "%"}, {"measurement": "Herbicidal action against [%] ALOMY", "setting": "Alopecurus myosuroides", "result": 100, "unit": "%"}]}
{"smiles": "CCSCCOC(=O)C1C=CC(NC(=O)C2(OC)CC(c3cc(F)cc(F)c3)=NO2)C1", "note": "(stereo not shown) [Example I-22]", "values": [{"measurement": "Herbicidal action against [%] ABUTH", "setting": "Abutilon theophrasti", "result": 80, "unit": "%"}, {"measurement": "Herbicidal action against [%] ECHCG", "setting": "Echinochloa crus-galli", "result": 80, "unit": "%"}, {"measurement": "Herbicidal action against [%] PHBPU", "setting": "Pharbitis purpurea", "result": 80, "unit": "%"}, {"measurement": "Herbicidal action against [%] LOLRI", "setting": "Lolium rigidum; 20 g a.i./ha", "result": 90, "unit": "%"}, {"measurement": "Herbicidal action against [%] AMARE", "setting": "Amaranthus retroflexus", "result": 80, "unit": "%"}, {"measurement": "Herbicidal action against [%] SETVI", "setting": "Setaria viridis; 20 g a.i./ha", "result": 90, "unit": "%"}, {"measurement": "Herbicidal action against [%] AVEFA", "setting": "Avena fatua; 20 g a.i./ha", "result": 90, "unit": "%"}, {"measurement": "Herbicidal action against [%] VERPE", "setting": "Veronica persica; 20 g a.i./ha", "result": 90, "unit": "%"}, {"measurement": "Herbicidal action against [%] DIGSA", "setting": "DIGSA; 20 g a.i./ha", "result": 90, "unit": "%"}, {"measurement": "Herbicidal action against [%] ALOMY", "setting": "Alopecurus myosuroides", "result": 90, "unit": "%"}]}
{"smiles": "CCS(=O)(=O)CCOC(=O)C1C=CC(NC(=O)C2(C)CC(c3cc(F)cc(F)c3)=NO2)C1", "note": "(stereo not shown) [Example I-01]", "values": [{"measurement": "Herbicidal action against [%] ABUTH", "setting": "Abutilon theophrasti", "result": 90, "unit": "%"}, {"measurement": "Herbicidal action against [%] ECHCG", "setting": "Echinochloa crus-galli", "result": 90, "unit": "%"}, {"measurement": "Herbicidal action against [%] PHBPU", "setting": "Pharbitis purpurea", "result": 80, "unit": "%"}, {"measurement": "Herbicidal action against [%] POLCO", "setting": "Polygonum convolvulus", "result": 90, "unit": "%"}, {"measurement": "Herbicidal action against [%] LOLRI", "setting": "Lolium rigidum; 20 g a.i./ha", "result": 100, "unit": "%"}, {"measurement": "Herbicidal action against [%] AMARE", "setting": "Amaranthus retroflexus", "result": 90, "unit": "%"}, {"measurement": "Herbicidal action against [%] SETVI", "setting": "Setaria viridis; 20 g a.i./ha", "result": 90, "unit": "%"}, {"measurement": "Herbicidal action against [%] AVEFA", "setting": "Avena fatua; 20 g a.i./ha", "result": 90, "unit": "%"}, {"measurement": "Herbicidal action against [%] VERPE", "setting": "Veronica persica; 20 g a.i./ha", "result": 80, "unit": "%"}, {"measurement": "Herbicidal action against [%] DIGSA", "setting": "DIGSA; 20 g a.i./ha", "result": 90, "unit": "%"}, {"measurement": "Herbicidal action against [%] ALOMY", "setting": "Alopecurus myosuroides", "result": 90, "unit": "%"}]}
{"smiles": "COC1(C(=O)NC2C=CC(C(=O)OCCSC(C)C)C2)CC(c2cc(F)cc(F)c2)=NO1", "note": "(stereo not shown) [Example I-25]", "values": [{"measurement": "Herbicidal action against [%] ABUTH", "setting": "Abutilon theophrasti", "result": 80, "unit": "%"}, {"measurement": "Herbicidal action against [%] ECHCG", "setting": "Echinochloa crus-galli", "result": 80, "unit": "%"}, {"measurement": "Herbicidal action against [%] PHBPU", "setting": "Pharbitis purpurea", "result": 80, "unit": "%"}, {"measurement": "Herbicidal action against [%] POLCO", "setting": "Polygonum convolvulus", "result": 80, "unit": "%"}, {"measurement": "Herbicidal action against [%] LOLRI", "setting": "Lolium rigidum; 20 g a.i./ha", "result": 90, "unit": "%"}, {"measurement": "Herbicidal action against [%] AMARE", "setting": "Amaranthus retroflexus", "result": 80, "unit": "%"}, {"measurement": "Herbicidal action against [%] SETVI", "setting": "Setaria viridis; 20 g a.i./ha", "result": 90, "unit": "%"}, {"measurement": "Herbicidal action against [%] AVEFA", "setting": "Avena fatua; 20 g a.i./ha", "result": 90, "unit": "%"}, {"measurement": "Herbicidal action against [%] VERPE", "setting": "Veronica persica; 20 g a.i./ha", "result": 80, "unit": "%"}, {"measurement": "Herbicidal action against [%] DIGSA", "setting": "DIGSA; 20 g a.i./ha", "result": 90, "unit": "%"}, {"measurement": "Herbicidal action against [%] ALOMY", "setting": "Alopecurus myosuroides", "result": 90, "unit": "%"}]}
